According to patent US20260223897A1, “SIAMENOSIDE I SWEETENED BEVERAGES WITH MOGROSIDE BLENDS” (The Coca-Cola Company, priority 2023, published 2026):

Assays:
panelists [1] = experiment: Example 2 paired sensory test: more bitter sample; format: in vivo; settings: Table 6
panelists [2] = experiment: Example 2 paired sensory test: higher syrupy mouthfeel; settings: Table 10; Sample A = 400 ppm Siamenoside I alone vs Sample B (blend, 400 ppm total)
panelists [3] = experiment: Example 3 paired sensory test: more bitter sample; format: in vivo
Experimental: Samples were tested within 7 days. […] Each pair of mogroside blends was evaluated by each panelist in triplet.

panelists [4] = experiment: Example 3 paired sensory test: higher licorice flavor; format: in vivo; settings: Table 14; Sample A = 500 ppm Siamenoside I alone vs Sample B (tri-blend of same row, 500 ppm total)
Experimental: Samples were tested within 7 days.
Sensory tests were carried out with 8-12 panelists. Each pair of mogroside blends was evaluated by each panelist in triplet.

[5] = cited from earlier work
panelists [6] = experiment: Example 2 paired sensory test: higher licorice flavor; settings: Table 7; Sample A = 400 ppm Siamenoside I alone vs Sample B (blend, 400 ppm total)
panelists [7] = experiment: Example 1 paired taste test: panelists select the more bitter sample; format: in vivo
Experimental: The sample was tested within 24 hours at room temperature.
Taste tests were carried out with 7-9 panelists and run singlet to triplet.

Structure (SMILES): C[C@H](CC[C@@H](O[C@@H]1O[C@H](CO[C@@H]2O[C@H](CO)[C@@H](O)[C@H](O)[C@H]2O)[C@@H](O)[C@H](O)[C@H]1O[C@@H]1O[C@H](CO)[C@@H](O)[C@H](O)[C@H]1O)C(C)(C)O)[C@H]1CC[C@@]2(C)[C@@H]3CC=C4[C@@H](CC[C@H](O[C@@H]5O[C@H](CO)[C@@H](O)[C@H](O)[C@H]5O)C4(C)C)[C@]3(C)[C@H](O)C[C@]12C [Siamenoside I]
- Number of Panelists that chose A as more bitter (panelists [1]; Sample A = 400 ppm Siamenoside I alone vs Sample B (blend, 400 ppm total)): 17
- Number of Panelists that chose A as more bitter (panelists [1]; Sample A = 500 ppm Siamenoside I alone vs Sample B (blend, 500 ppm total), Sample B with 400 ppm of Siamenoside I): 12
- Number of Panelists that chose A as more bitter (panelists [1]; Sample A = 500 ppm Siamenoside I alone vs Sample B (blend, 500 ppm total), Sample B with 450 ppm of Siamenoside I): 15
- Number of Panelists that chose A as more bitter (panelists [1]; Sample A = 500 ppm Siamenoside I alone vs Sample B (blend, 500 ppm total), Sample B with 487.5 ppm of Siamenoside I): 13
- Number of Panelist to choose A as higher syrupy mouthfeel (panelists [2]): 7
- Number of Panelist to choose A as more bitter (panelists [3]; Table 11, Sample A = 500 ppm Siamenoside I alone vs Sample B (tri-blend, 500 ppm total)): 19
- Number of Panelist to choose A as more bitter (panelists [3]; Table 13, Sample A = 500 ppm Siamenoside I alone vs Sample B (blend, 500 ppm total)): 16
- Number of Panelist to choose A as higher licorice flavor (panelists [4]): 23
- taste balance compared with mogroside V ([5]; WO 2018213683 A1): better balance in sweetness, bitterness, sweet linger, astringency, and mouthfeel than mogroside V
- sensory properties at high concentrations ([5]; high purity, concentrations required to achieve a sucrose equivalence to 10° Brix): significant off-tastes such as licorice, metallic and bitter tastes, as well as sweetness lingering and bitter lingering
- Number of Panelist that chose A as higher licorice flavor (panelists [6]): 20
- Number of Panelists that chose A as more bitter (panelists [7]; Table 1, Sample A = 400 ppm siamenoside alone vs Sample B (blend of same row, 400 ppm total mogroside), filtered water): 15
- Number of Panelists that chose A as more bitter (panelists [7]; Table 2, Sample A = 400 ppm Siamenoside I alone vs Sample B (blend, 400 ppm total)): 6
- Number of Panelists that chose A as more bitter (panelists [7]; Table 3, Sample A = 400 ppm Siamenoside I alone vs Sample B (blend, 400 ppm total)): 10
- Number of Panelists that chose A as more bitter (panelists [7]; Table 3, Sample A = 500 ppm Siamenoside I alone vs Sample B (blend, 500 ppm total)): 7
